Columns and labels:
[1] = tested on: chymotrypsin-like activity of the proteasome; assay: Proteasome activity in cell lysates (Suc-LLVY-AMC cleavage); format: biochemical; settings: cell lysates from leukemia and myeloma cell lines
Description: A) Proteasome activity of MDAY-D2 and JJN3 cellular extracts after two hours of treatment with clioquinol (CQ), CuCl2 (Cu), or an equimolar concentration of CQ and Cu. After treatment, the preferential chymotrypsin-like substrate Suc-LLVY-AMC was added and the rate of free AMC was measured over time with a florescent spectrophotometric plate reader (excitation=380 nm, emission=460 nm). B) Proteasome activity of intact MDAY-D2 and JJN3 cells after two hours of treatment with clioquinol (CQ), CuCl2 (Cu), or an equimolar concentration of CQ and Cu. After treatment, the preferential chymotrypsin-like substrate Suc-LLVY-AMC was added and the rate of free AMC was measured over time with a florescent spectrophotometric plate reader (excitation=380 nm, emission=460 nm). […] The chymotrypsin-like activity of the proteasome was measured by incubating equal amounts of protein with the preferential chymotrypsin-like substrate Suc-LLVY-AMC in assay buffer (50 mM Tris-HCl, pH 7.5, 150 mM NaCl) for two hours. After incubation, […] and the rate of free AMC was measured over time with a florescent spectrophotometric plate reader (excitation=380 nm, emission=460 nm). […] The chymotrypsin-like activity of the proteasome was measured by monitoring the rate of cleavage of the fluorescent substrate Suc-LLVY-AMC.

[2] = tested on: chymotrypsin-like activity of the proteasome; assay: Proteasome activity after treatment of intact cell lines; format: cell-based; settings: intact leukemia and myeloma cell lines
Description: A) Proteasome activity of MDAY-D2 and JJN3 cellular extracts after two hours of treatment with clioquinol (CQ), CuCl2 (Cu), or an equimolar concentration of CQ and Cu. After treatment, the preferential chymotrypsin-like substrate Suc-LLVY-AMC was added and the rate of free AMC was measured over time with a florescent spectrophotometric plate reader (excitation=380 nm, emission=460 nm). B) Proteasome activity of intact MDAY-D2 and JJN3 cells after two hours of treatment with clioquinol (CQ), CuCl2 (Cu), or an equimolar concentration of CQ and Cu. After treatment, the preferential chymotrypsin-like substrate Suc-LLVY-AMC was added and the rate of free AMC was measured over time with a florescent spectrophotometric plate reader (excitation=380 nm, emission=460 nm). Cellular proteins were extracted from cells with lysis buffer (50 mM HEPES pH 7.5, 150 mM NaCl, 2 mM ATP, and 1% Triton X-100). The chymotrypsin-like activity of the proteasome was measured by incubating equal amounts of protein with the preferential chymotrypsin-like substrate Suc-LLVY-AMC in assay buffer (50 mM Tris-HCl, pH 7.5, 150 mM NaCl) for two hours. After incubation, […] and the rate of free AMC was measured over time with a florescent spectrophotometric plate reader (excitation=380 nm, emission=460 nm). […]

SMILES: [Cl][Cu][Cl] [copper, CuCl2]
- rate of Suc-LLVY-AMC cleavage [1]: inhibited the rate of Suc-LLVY-AMC cleavage
- chymotrypsin-like activity of the proteasome [2]: no effect on the function of proteasome

Source: patent US20110123617A1, “CLIOQUINOL FOR THE TREATMENT OF HEMATOLOGICAL MALIGNANCIES” (priority 2007, published 2011)
